Assay type in all cases: functional
For assay [1], the system named is Acinetobacter baumannii. Put plainly: Antimicrobial activity against Acinetobacter baumannii isolate 35 by broth microdilution assay. (In general: Dilution methods test growth across graded concentrations, often in twofold steps.)
For assay [2], the system named is Acinetobacter baumannii. As to the kind of experiment: Antimicrobial activity against Acinetobacter baumannii isolate 3 by broth microdilution assay.
For assay [3], the system named is Acinetobacter baumannii. Put plainly: Antimicrobial activity against Acinetobacter baumannii isolate 52 by broth microdilution assay.
Assay [4] relates to Acinetobacter baumannii. Put plainly: Antimicrobial activity against Acinetobacter baumannii isolate 26 by broth microdilution assay.
Assay [5] relates to Acinetobacter baumannii. Put plainly: Antimicrobial activity against Acinetobacter baumannii isolate 12 by broth microdilution assay.
The subject of assay [6] is Acinetobacter baumannii. Put plainly: Antimicrobial activity against Acinetobacter baumannii isolate 59 by broth microdilution assay.
Assay [7] deals with Acinetobacter baumannii. As to the kind of experiment: Antimicrobial activity against Acinetobacter baumannii isolate 9 by broth microdilution assay.
Assay [8] concerns Acinetobacter baumannii. As to the kind of experiment: Antimicrobial activity against Acinetobacter baumannii isolate 15 by broth microdilution assay.
Assay [9] deals with Acinetobacter baumannii. Put plainly: Antimicrobial activity against Acinetobacter baumannii isolate 20 by broth microdilution assay.
Assay [10] has as its system Acinetobacter baumannii. As to the kind of experiment: Antimicrobial activity against Acinetobacter baumannii isolate 38 by broth microdilution assay.
For assay [11], the system named is Acinetobacter baumannii. Put plainly: Antimicrobial activity against Acinetobacter baumannii isolate 30 by broth microdilution assay.
For assay [12], the system named is Acinetobacter baumannii. Put plainly: Antimicrobial activity against Acinetobacter baumannii isolate 45 by broth microdilution assay.

≈ marks a conversion by molar mass, not a printed value.

Data on 13 compounds can be found in ChEMBL document CHEMBL3784957, “Patterns of biofilm structure and formation kinetics among Acinetobacter baumannii clinical isolates with different antibiotic resistance profiles” (2016).

The term MIC denotes the lowest concentration that inhibits growth of the organism. Read a high MIC as a less susceptible organism.

As for `NCC[C@H](O)C(=O)N[C@@H]1C[C@H](N)[C@@H](O[C@H]2O[C@H](CN)[C@@H](O)[C@H](O)[C@H]2O)[C@H](O)[C@H]1O[C@H]1O[C@H](CO)[C@@H](O)[C@H](N)[C@H]1O` [AMIKACIN], the MIC against Acinetobacter baumannii [1] was ≤ 2 µg/mL; against Acinetobacter baumannii [2], ≤ 2 µg/mL; in the assay with Acinetobacter baumannii [3] it was ≤ 2 µg/mL; with Acinetobacter baumannii [4], ≤ 2 µg/mL; with Acinetobacter baumannii [5], 8 µg/mL (≈ 13.7 µM); in the assay with Acinetobacter baumannii [6], ≤ 2 µg/mL. In addition, the MIC in the assay on Acinetobacter baumannii [7] is > 32 µg/mL; in the assay on Acinetobacter baumannii [8] it was 16 µg/mL (≈ 27.3 µM); with Acinetobacter baumannii [9], > 32 µg/mL; in the assay on Acinetobacter baumannii [10], ≤ 2 µg/mL; against Acinetobacter baumannii [11] it was 4 µg/mL (≈ 6.83 µM); against Acinetobacter baumannii [12], ≤ 2 µg/mL.
Regarding `CO/N=C(\C(=O)N[C@@H]1C(=O)N2C(C(=O)[O-])=C(C[N+]3(C)CCCC3)CS[C@H]12)c1csc(N)n1` [CEFEPIME], the MIC with Acinetobacter baumannii [1] is 8 µg/mL (≈ 16.6 µM); with Acinetobacter baumannii [2] it was 16 µg/mL (≈ 33.3 µM); against Acinetobacter baumannii [3], > 32 µg/mL; with Acinetobacter baumannii [4], 16 µg/mL (≈ 33.3 µM); in the assay on Acinetobacter baumannii [5] it was 32 µg/mL (≈ 66.6 µM); in the assay with Acinetobacter baumannii [6], 2 µg/mL (≈ 4.16 µM). Also, the MIC against Acinetobacter baumannii [7] is 32 µg/mL (≈ 66.6 µM); against Acinetobacter baumannii [8] it was > 32 µg/mL; with Acinetobacter baumannii [9], > 32 µg/mL; in the assay with Acinetobacter baumannii [10], 2 µg/mL (≈ 4.16 µM); against Acinetobacter baumannii [11], 16 µg/mL (≈ 33.3 µM); with Acinetobacter baumannii [12] it was 8 µg/mL (≈ 16.6 µM).
Take `CC(C)(O/N=C(\C(=O)N[C@@H]1C(=O)N2C(C(=O)[O-])=C(C[n+]3ccccc3)CS[C@H]12)c1csc(N)n1)C(=O)O` [CEFTAZIDIME]: the MIC is > 16 µg/mL with Acinetobacter baumannii [1]; > 32 µg/mL against Acinetobacter baumannii [2]; > 32 µg/mL in the assay with Acinetobacter baumannii [3]; > 32 µg/mL in the assay on Acinetobacter baumannii [4]; 16 µg/mL (≈ 29.3 µM) in the assay on Acinetobacter baumannii [5]; 2 µg/mL (≈ 3.66 µM) against Acinetobacter baumannii [6]. In addition, the MIC against Acinetobacter baumannii [7] is > 32 µg/mL; with Acinetobacter baumannii [8], > 32 µg/mL; in the assay with Acinetobacter baumannii [9] it was > 32 µg/mL; in the assay on Acinetobacter baumannii [10], 4 µg/mL (≈ 7.32 µM); with Acinetobacter baumannii [11] it was 16 µg/mL (≈ 29.3 µM); in the assay on Acinetobacter baumannii [12], > 32 µg/mL.
Regarding `O=C(O)c1cn(C2CC2)c2cc(N3CCNCC3)c(F)cc2c1=O` [CIPROFLOXACIN], the MIC against Acinetobacter baumannii [1] was > 2 µg/mL; with Acinetobacter baumannii [2], > 2 µg/mL; in the assay with Acinetobacter baumannii [3] it was > 2 µg/mL; in the assay on Acinetobacter baumannii [4] it was > 2 µg/mL; with Acinetobacter baumannii [5], > 2 µg/mL; against Acinetobacter baumannii [6] it was ≤ 0.25 µg/mL. Also, the MIC was > 2 µg/mL with Acinetobacter baumannii [7]; > 2 µg/mL with Acinetobacter baumannii [8]; > 2 µg/mL against Acinetobacter baumannii [9]; ≤ 0.25 µg/mL against Acinetobacter baumannii [10]; > 2 µg/mL in the assay with Acinetobacter baumannii [11]; > 2 µg/mL in the assay with Acinetobacter baumannii [12].
With `C[C@@H](O)[C@H]1C(=O)N2C(C(=O)O)=C(SCCNC=N)C[C@H]12` [IMIPENEM ANHYDROUS], the minimum inhibitory concentration (MIC) against Acinetobacter baumannii [1] was > 8 µg/mL; against Acinetobacter baumannii [2], > 8 µg/mL; against Acinetobacter baumannii [3], > 8 µg/mL; against Acinetobacter baumannii [4] it was ≤ 1 µg/mL; against Acinetobacter baumannii [5], > 8 µg/mL; with Acinetobacter baumannii [6] it was ≤ 1 µg/mL. For the same compound, the MIC in the assay on Acinetobacter baumannii [7] is > 8 µg/mL; against Acinetobacter baumannii [8] it was > 8 µg/mL; against Acinetobacter baumannii [9] it was > 8 µg/mL; in the assay with Acinetobacter baumannii [10], ≤ 1 µg/mL; with Acinetobacter baumannii [11], 2 µg/mL (≈ 6.68 µM); in the assay with Acinetobacter baumannii [12], > 8 µg/mL.
Turning to `C[C@H]1COc2c(N3CCN(C)CC3)c(F)cc3c(=O)c(C(=O)O)cn1c23.C[C@H]1COc2c(N3CCN(C)CC3)c(F)cc3c(=O)c(C(=O)O)cn1c23.O` [LEVOFLOXACIN], the MIC was > 4 µg/mL against Acinetobacter baumannii [1]; > 4 µg/mL against Acinetobacter baumannii [2]; > 4 µg/mL against Acinetobacter baumannii [3]; > 4 µg/mL against Acinetobacter baumannii [4]; > 4 µg/mL against Acinetobacter baumannii [5]; ≤ 0.12 µg/mL in the assay on Acinetobacter baumannii [6]. In addition, the MIC was > 4 µg/mL with Acinetobacter baumannii [7]; > 4 µg/mL against Acinetobacter baumannii [8]; > 4 µg/mL against Acinetobacter baumannii [9]; ≤ 0.12 µg/mL in the assay on Acinetobacter baumannii [10]; > 4 µg/mL against Acinetobacter baumannii [11]; > 4 µg/mL with Acinetobacter baumannii [12].
Turning to `C[C@@H](O)[C@H]1C(=O)N2C(C(=O)O)=C(S[C@@H]3CN[C@H](C(=O)N(C)C)C3)[C@H](C)[C@H]12` [MEROPENEM], the MIC in the assay with Acinetobacter baumannii [1] is 8 µg/mL (≈ 20.9 µM); against Acinetobacter baumannii [2] it was > 8 µg/mL; in the assay with Acinetobacter baumannii [3] it was > 8 µg/mL; in the assay with Acinetobacter baumannii [4] it was 1 µg/mL (≈ 2.61 µM); against Acinetobacter baumannii [5], > 8 µg/mL; against Acinetobacter baumannii [6], 1 µg/mL (≈ 2.61 µM). In addition, the MIC with Acinetobacter baumannii [7] was > 8 µg/mL; in the assay with Acinetobacter baumannii [8] it was > 8 µg/mL; against Acinetobacter baumannii [9] it was > 8 µg/mL; against Acinetobacter baumannii [10], ≤ 0.25 µg/mL; against Acinetobacter baumannii [11], 2 µg/mL (≈ 5.22 µM); against Acinetobacter baumannii [12], 8 µg/mL (≈ 20.9 µM).
As to `CN(C)c1ccc(O)c2c1C[C@H]1C[C@H]3[C@H](N(C)C)C(O)=C(C(N)=O)C(=O)[C@@]3(O)C(O)=C1C2=O` [MINOCYCLINE], the MIC was ≤ 1 µg/mL against Acinetobacter baumannii [1]; 2 µg/mL (≈ 4.37 µM) against Acinetobacter baumannii [2]; ≤ 1 µg/mL with Acinetobacter baumannii [3]; 2 µg/mL (≈ 4.37 µM) in the assay with Acinetobacter baumannii [4]; ≤ 1 µg/mL against Acinetobacter baumannii [5]; ≤ 1 µg/mL in the assay with Acinetobacter baumannii [6]. Also, the MIC in the assay with Acinetobacter baumannii [7] is 8 µg/mL (≈ 17.5 µM); against Acinetobacter baumannii [8] it was ≤ 1 µg/mL; with Acinetobacter baumannii [9] it was 8 µg/mL (≈ 17.5 µM); against Acinetobacter baumannii [10] it was ≤ 1 µg/mL; in the assay with Acinetobacter baumannii [11], ≤ 1 µg/mL; in the assay on Acinetobacter baumannii [12], 2 µg/mL (≈ 4.37 µM).
Consider `CCN1CCN(C(=O)N[C@@H](C(=O)N[C@@H]2C(=O)N3[C@@H]2SC(C)(C)[C@@H]3C(=O)O)c2ccccc2)C(=O)C1=O` [PIPERACILLIN], for which the MIC in the assay on Acinetobacter baumannii [1] was > 64 µg/mL; against Acinetobacter baumannii [2], > 64 µg/mL; in the assay with Acinetobacter baumannii [3], > 64 µg/mL; in the assay with Acinetobacter baumannii [4], > 64 µg/mL; with Acinetobacter baumannii [5], > 64 µg/mL; against Acinetobacter baumannii [6] it was ≤ 8 µg/mL. The MIC in the assay with Acinetobacter baumannii [7] is > 64 µg/mL; against Acinetobacter baumannii [8] it was > 64 µg/mL; in the assay with Acinetobacter baumannii [9] it was > 64 µg/mL; in the assay with Acinetobacter baumannii [10], ≤ 8 µg/mL; with Acinetobacter baumannii [11], > 64 µg/mL; with Acinetobacter baumannii [12], > 64 µg/mL.
In the case of `CC1(C)S[C@@H]2[C@H](NC(=O)[C@H](C(=O)O)c3ccsc3)C(=O)N2[C@H]1C(=O)O` [TICARCILLIN], the MIC is > 64 µg/mL in the assay with Acinetobacter baumannii [1]; > 64 µg/mL against Acinetobacter baumannii [2]; > 64 µg/mL in the assay with Acinetobacter baumannii [3]; 32 µg/mL (≈ 83.2 µM) with Acinetobacter baumannii [4]; 64 µg/mL (≈ 166 µM) against Acinetobacter baumannii [5]; ≤ 8 µg/mL in the assay with Acinetobacter baumannii [6]. Also, the MIC is > 64 µg/mL in the assay on Acinetobacter baumannii [7]; > 64 µg/mL with Acinetobacter baumannii [8]; > 64 µg/mL against Acinetobacter baumannii [9]; ≤ 8 µg/mL in the assay with Acinetobacter baumannii [10]; > 64 µg/mL in the assay with Acinetobacter baumannii [11]; > 64 µg/mL in the assay with Acinetobacter baumannii [12].
As to `NC[C@H]1O[C@H](O[C@H]2[C@H](O)[C@@H](O[C@H]3O[C@H](CO)[C@@H](O)[C@H](N)[C@H]3O)[C@H](N)C[C@@H]2N)[C@H](N)C[C@@H]1O` [TOBRAMYCIN], the MIC in the assay with Acinetobacter baumannii [1] was > 8 µg/mL; against Acinetobacter baumannii [2], ≤ 1 µg/mL; against Acinetobacter baumannii [3], ≤ 1 µg/mL; in the assay with Acinetobacter baumannii [4] it was ≤ 1 µg/mL; in the assay on Acinetobacter baumannii [5] it was > 8 µg/mL; against Acinetobacter baumannii [6] it was ≤ 1 µg/mL. Besides, the MIC with Acinetobacter baumannii [7] was > 8 µg/mL; against Acinetobacter baumannii [8], > 8 µg/mL; against Acinetobacter baumannii [9] it was > 8 µg/mL; in the assay with Acinetobacter baumannii [10], > 8 µg/mL; in the assay with Acinetobacter baumannii [11], 8 µg/mL (≈ 17.1 µM); in the assay with Acinetobacter baumannii [12], 8 µg/mL (≈ 17.1 µM).
As to COLISTIN, the MIC is < 0.5 µg/mL with Acinetobacter baumannii [1]; < 0.5 µg/mL against Acinetobacter baumannii [2]; < 0.5 µg/mL in the assay with Acinetobacter baumannii [3]; < 0.5 µg/mL against Acinetobacter baumannii [4]; 16 µg/mL against Acinetobacter baumannii [5]; < 0.5 µg/mL in the assay on Acinetobacter baumannii [6]. Moreover, the MIC against Acinetobacter baumannii [7] was < 0.5 µg/mL; in the assay with Acinetobacter baumannii [8], < 0.5 µg/mL; in the assay on Acinetobacter baumannii [9] it was < 0.5 µg/mL; in the assay with Acinetobacter baumannii [10] it was < 0.5 µg/mL; against Acinetobacter baumannii [11] it was < 0.5 µg/mL; in the assay on Acinetobacter baumannii [12] it was 8 µg/mL.
GENTAMICIN: the MIC in the assay with Acinetobacter baumannii [1] was > 8 µg/mL; against Acinetobacter baumannii [2], < 1 µg/mL; in the assay on Acinetobacter baumannii [3], 4 µg/mL; against Acinetobacter baumannii [4], < 1 µg/mL; with Acinetobacter baumannii [5], > 8 µg/mL; with Acinetobacter baumannii [6], < 1 µg/mL. Besides, the MIC was > 8 µg/mL in the assay on Acinetobacter baumannii [7]; > 8 µg/mL against Acinetobacter baumannii [8]; > 8 µg/mL with Acinetobacter baumannii [9]; < 1 µg/mL against Acinetobacter baumannii [10]; > 8 µg/mL against Acinetobacter baumannii [11]; > 8 µg/mL against Acinetobacter baumannii [12].
